As usually defined, the IC50 is the concentration that gives 50% inhibition.

Series [1] in a line: Stability test in liver microsomes (rat). It counts as in vitro ADME. The conditions noted are these: rat liver microsomes 0.5 mg/mL, 1 μM compound. The method, then:
(§1) Both male CD-1 mouse pooled liver microsomes and male SD rat pooled liver microsomes were purchased from BioreclamationIVT Corporation, USA.
(§2) The test compound stock solution was diluted with an organic solvent (usually a mixture of acetonitrile, methanol and water with various ratios, depending on the solubility of the compound, if necessary, 1 N hydrochloric acid or 1 N sodium hydroxide would be added to facilitate solubilization) to the 0.1 mM (the final concentration of the compound in the reaction system was 1 μM) and the concentration percentage of the organic solvents in the incubation system no more than 1% (wherein the percentage of DMSO was required to be no more than 0.1%). An appropriate amount of 100 mM NADP, 500 mM G-6-P and 100 Unit/mL G-6-PDH were mixed and diluted with ultrapure water (the final system contains 1 mM NADP, 5 mM G-6-P and 1 Unit/mL G-6-PDH), pre-incubated in a 37° C. water bath for 10 minutes and then placed on ice for use as a NADPH regeneration solution. 20 mg/mL liver microsomes solution and 200 mM phosphate buffer were mixed, and diluted with ultrapure water to give a liver microsomes solution containing 2.5 mg/mL liver microsomes (the final concentration of the reaction system is 0.5 mg/mL) and 50 mM phosphate buffer. The diluted liver microsomes solution was mixed with 0.1 mM compound solution, a mixture of 100 mM EDTA, 300 mM MgCl2 solution, 200 mM phosphate buffer (the final system was 3 mM MgCl2, 1 mM EDTA and 50 mM phosphate buffer) and water in an appropriate volume was added. Finally, the NADPH regeneration solution was added, then the reaction solution was placed in a 37° C. water bath to start the reaction (the reaction time was 30 minutes), and the reaction was stopped by adding the ice-cold acetonitrile reaction stopping solution containing the internal standard. The 0-minute sample was not incubated in a 37° C. water bath, and its difference from the 30-minute sample further lies in that the ice-cold acetonitrile reaction stopping solution containing the internal standard was added first, and then the NADPH regeneration solution was added. The sample added with the reaction stopping internal standard solution was vortexed and mixed well, and then centrifuged at 4400 rpm for 10 minutes. The supernatant was taken and diluted ten times with 50% methanol for LC-MS/MS analysis.
(§3) LC-MS/MS was used to determine the concentration of the compound in the sample. The percentage of the remaining compound after 30 minutes of incubation comparing with that in the 0-minute sample was calculated using the peak area ratio of the compound to the internal standard as an indicator, to evaluate the metabolic stability of the compound.
A general note: Microsomes from liver hold many membrane-bound enzymes, among them those of drug oxidation.

Series [2] deals with anti-IgD antibody-induced B cell activation in mice whole blood. The experiment in a line: In vivo efficacy of the inhibitory effect on BTK target: anti-IgD antibody-induced B cell activation in mice whole blood after oral dosing. Further details: species or system mouse. The following applies: 20 mg/kg oral single dose, 16 h. As to the method:
Objects: B cells in mice whole blood were induced and activated by the anti-IgD antibody, and the inhibitory effect of the compound of the present invention on B cell activation in vivo was studied, so as to determine the inhibitory effect of the compound of the present invention on the BTK target in vivo.
Methods: C57BL/6 mice (female, 18-20 g, purchased from Shanghai Lingchang Biotechnology Co., Ltd.) were grouped according to Table 1.
The animals of each group were administered, then were placed in CO2 for anesthesia at designated time points, blood samples were taken from […] via retro-orbital bleeding, and heparin was used for anticoagulation; 90 μL of whole blood was taken from mice of each group, and added to a 96 well culture plate, and anti-mouse IgD antibody (BIO-RAD, Cat #MCA4693) was added to each well to a final concentration of […] (respectively for each drug-treated group and anti-IgD antibody-inducted vehicle group); in addition, 90 μL of whole blood of mice in the vehicle group was taken and added to the 96-well culture plate, and PBS (phosphate buffer, GIBCO, Cat #C20012500BT) was added to each well to a final concentration of 0.01 μg/L (namely, the vehicle control group); Each group was mixed well and incubated in a 37° C./5% CO2 incubator for 4 hours. In addition, the blood of mice in the drug-treated group was centrifuged to separate plasma for blood concentration analysis.
B cell activation ratio=percentage of CD69^+CD19^+ double positive B cells/percentage of CD19^+ single positive B cells
Inhibition ratio=(percentage of B cell activation ratio in anti-IgD antibody-induced vehicle group−percentage of B cell activation ratio in drug-treated group)/(percentage of B cell activation ratio in anti-IgD antibody−induced vehicle group-percentage of B cell activation ratio in vehicle control group)×100%
All data are represented by mean±standard error. For the comparison between each drug-treated group and the anti-IgD antibody-induced vehicle group, p value was calculated by Graphpad Prism using one-way ANOVA analysis of variance and Dunnett's test, and for the comparison between each drug-treated group, p value was calculated by using unpaired t test.

A further series addresses BTK recombinant protein (Homo sapiens (Human), UniProt Q06187). The experiment in a line: Determination of biochemical BTK (Z'-LYTE kinase assay). The conditions noted are these: 32 μM ATP. The source says:
BTK recombinant protein: Invitrogen, Cat #PV3363;
Z′-LYTE® kinase test kit-tyrosine 1 peptide: Invitrogen, Cat #PV3190;
Z′-LYTE® biochemical assay employs a fluorescence resonance energy transfer (FRET)-based, coupled-enzyme format and is based on the differential sensitivity of phosphorylated and non-phosphorylated peptides to proteolytic cleavage. Both ends of the short peptide substrate are labeled with two fluorescent groups to form a FRET paired combination. In the primary reaction (the Kinase Reaction), the kinase transfers the γ-phosphate of ATP to a single […] residue on the short peptide substrate. In the secondary reaction (the development reaction), the non-phosphorylated short peptides were recognized and cleaved by a site-specific protease (the development reagent). Phosphorylated short peptides can resist such cleavage. Cleavage of short peptides can disrupt the donor (such as coumarin) and receptor fluorophores (fluorescein) on the short peptides, while the phosphorylated short peptides can maintain FRET. The calculation method of the ratio is as follows, and the ratio of the respective emission signals generated by the donor fluorophores emitted (after excitation at 400 nm) to the receptors is calculated. Emission signal ratio=emitted light by coumarin (445 nm)/emitted light by fluorescein (520 nm). If the FRET short peptide is phosphorylated (such as no kinase inhibitor), the emitted light ratio will remain in a lower level. If the FRET short peptide is non-phosphorylated (such as kinase inhibitor), the emitted light ratio will be in a higher level. In this way, the inhibitory effects of different compound inhibitors on BTK kinase activity would be distinguished.
The experiment was carried out according to the instructions of the Z′-LYTE® kinase test kit-tyrosine 1 peptide. Reagent preparation: 1.33× kinase buffer: 5× kinase buffer was diluted with water to 1.33× kinase buffer; an enzyme solution: the kinase was dissolved in 1.33× kinase buffer with the final working concentration being 3.32 nM; a short peptide solution: a short peptide stock solution (1 mM dissolved in DMSO) was dissolved in 1.33× kinase buffer with the final working concentration being 2 μM; Z′-LYTE Tyr01 phosphorylated short peptide solution, 0.6 μl of stock solution (1 mM dissolved in DMSO) was dissolved in 149.4 μl of 1.33× kinase buffer; an ATP solution: an ATP stock solution (10 mM aqueous solution) was dissolved in 1.33× kinase buffer with the final working concentration being 32 μM; a color-developing solution: color-developing solution B was dissolved in color-developing buffer with the final working concentration being 1× color-developing solution; 4× compound preparation: the compound was diluted in 3-fold gradient concentration to finally obtain 4% DMSO aqueous solution containing different concentrations of the compound, with the final working concentration being 3000, 1000, 333.33, 111.11, 37.04, 12.35, 4.12, 1.37 nM, 8 concentration points in total.
Specific steps of the experiment: In the experiment, there were three control groups, each with 8 replicate wells, which were C1 100% inhibition group (no ATP), C2 0% inhibition group (with ATP), and C3 100% phosphorylation group, respectively. 2.5 μl of serially diluted compound was added to each well of a 384-well plate, with double replicate wells, and 4% DMSO solution was added to wells C1, C2, and C3. After that, except for wells C3, 2.5 μl of BTK enzyme solution was added to each remaining well, which was left to stand at 4° C. for 30 minutes. After that, except for wells C3, 2.5 μl of short peptide solution was added to each well, and 5 μl of phosphorylated short peptide solution was added to each of wells C3. 2.5 μl of 1.33× kinase buffer was added to each of wells C1 and C3, and 2.5 μl of ATP solution was added to each of the remaining wells. The wells were centrifuged transiently, and the plate was shaken at 1000 rpm for 30 seconds to perform transient centrifuge. […]

Series [3] is described as follows: Stability test in liver microsomes (mouse). It counts as in vitro ADME. The following applies: mouse liver microsomes 0.5 mg/mL, 1 μM compound. The method, then:
as §1, §2, §3

Chain of BTK recombinant protein (Q06187 whole entry): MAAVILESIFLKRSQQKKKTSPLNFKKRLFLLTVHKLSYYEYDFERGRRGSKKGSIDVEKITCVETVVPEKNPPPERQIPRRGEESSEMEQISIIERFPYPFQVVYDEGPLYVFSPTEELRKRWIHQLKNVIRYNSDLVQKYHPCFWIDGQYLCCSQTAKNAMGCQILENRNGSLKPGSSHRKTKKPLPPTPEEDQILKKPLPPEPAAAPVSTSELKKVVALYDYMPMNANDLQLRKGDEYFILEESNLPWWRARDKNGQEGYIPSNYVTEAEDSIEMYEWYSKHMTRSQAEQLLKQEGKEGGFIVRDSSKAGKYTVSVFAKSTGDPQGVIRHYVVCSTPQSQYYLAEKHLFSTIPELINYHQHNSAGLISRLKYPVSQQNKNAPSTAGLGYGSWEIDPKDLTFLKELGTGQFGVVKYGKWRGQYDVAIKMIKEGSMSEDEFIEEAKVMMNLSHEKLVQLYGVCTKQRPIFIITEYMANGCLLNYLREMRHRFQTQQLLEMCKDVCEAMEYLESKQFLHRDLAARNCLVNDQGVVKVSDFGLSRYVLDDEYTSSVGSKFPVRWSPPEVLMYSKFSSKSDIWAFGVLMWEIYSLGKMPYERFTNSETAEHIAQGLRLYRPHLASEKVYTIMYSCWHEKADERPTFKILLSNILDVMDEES

Consider `C[C@@H]1CN(C2COC2)C[C@H](C)N1c1ccc(Nc2cc(-c3ccnc(-n4ccn5c6c(cc5c4=O)CC(C)(C)C6)c3CO)cn(C)c2=O)nc1` [Compound 2], for which, in series [1], the “RLM, percentage of the remaining compound after 30 minutes of incubation” value turned out to be 85.7%. Further, the “Inhibition ratio (%) on B cell activation” value in series [2] and in series [2] (listed as compound 2) was 43% in each case. Moreover, the “B cell activation ratio (the population of activated B cells in total B cells)” value in series [2] (mean ± standard error) is given as 20.6 ± 5.0. Besides, the IC50 at BTK recombinant protein was 7 nM. The “MLM, percentage of the remaining compound after 30 minutes of incubation” value in series [3] amounted to 92.6%.

For the origin of these results see US20230382916A1, “HETEROARYL HETEROCYCLIC COMPOUNDS AND USES THEREOF” (HUTCHISON MEDIPHARMA LIMITED, priority 2020, published 2023).
